Results: patent publication US6660879B2, “3-aryl-2-hydroxypropionic acid derivative I” (AstraZeneca AB, priority 1998, dated 2003)

System: obese diabetic mice of the Umeå ob/ob strain
Experiment: Biological activity in obese diabetic ob/ob mice (plasma glucose, insulin, triglycerides; weight gain)
Assay type: in vivo
Conditions: gavage once daily for 7 days
Experimental: The biological activity of the compound of the invention was tested in obese diabetic mice of the Umea ob/ob strain. Groups of mice received the test compound by gavage once daily for 7 days. On the last day of the experiment the animals were anesthetized 2h after dose in a non-fed state and blood was collected from an incised artery. Plasma was analyzed for concentration of glucose, insulin and triglycerides. A group of untreated obese diabetic mice of the same age served as control. The weight of the mice was measured before and after the experiment and the obtained weight gain was compared to the weight gain of the control animals. The individual values for glucose, insulin and triglyceride levels of the mice from the test group were expressed as the percent rage of the corresponding values from the control group.
The desired “therapeutic effect” was calculated as the average percent reduction of the three variables glucose, insulin and triglycerides below the levels in the control animals. The therapeutic effect of the tested compounds according to the invention was compared to the same effect in the prior art compound troglitazone, administrered by gavage in the oral dose of 100 μmol/kg for 7 days.

weight gain compared to the weight gain of the control animals (weight measured before and after the experiment): without undesirable weight gain
Structure (SMILES): CCO[C@@H](Cc1ccc(OCCc2ccc(OS(C)(=O)=O)cc2)cc1)C(=O)O [Example 1, (S)-2-Ethoxy-3-[4-(2-{4-methanesulfonyloxyphenyl}ethoxy)phenyl]propanoic acid]
therapeutic effect (average percent reduction of glucose, insulin and triglycerides below the levels in the control animals) (plasma 2h after last dose, non-fed, compared to troglitazone given in the same oral dose (100 μmol/kg for 7 days)): superior effects
